Experimental data published in patent US8846672B2, “Imidazopyridines as respiratory syncytial virus antiviral agents” (Janssen R&D Ireland, priority 2010, dated 2014).

Test system: RSV
Test: RSV inhibitory activity (WT activity)
Format: cell-based, respiratory syncytial virus
Settings: Table 1, wild-type RSV

Row | Compound | EC50
1 | COCCCc1c(Cn2c(=O)n(C3CC3)c3ccncc32)nc2cc(Cl)ccn12 [Compound P2] | 3.8 nM
2 | O=c1n(Cc2nc3ccccn3c2CCCCO)c2cnccc2n1C1CC1 [Compound P5] | 21.8 nM
3 | COCC#Cc1c(Cn2c(=O)n(C3CC3)c3ccncc32)nc2cc(Cl)ccn12 [Compound P6] | 170 nM
4 | O=c1n(Cc2nc3cc(CCCCO)ccn3c2CCCCO)c2cnccc2n1C1CC1 [Compound P10] | > 9840 nM
5 | CC(C)CC#Cc1c(Cn2c(=O)n(C(C)C)c3ccccc32)nc2ccccn12 [Compound P11] | 11300 nM
6 | CC(C)n1c(=O)n(Cc2cn3ccccc3n2)c2ccccc21 [Compound P12] | 16100 nM
7 | O=c1n(Cc2cn3ccccc3n2)c2cnccc2n1C1CC1 [Compound P13] | 51500 nM
8 | O=c1n(Cc2cn3ccncc3n2)c2cnccc2n1C1CC1 [Compound P14] | > 98400 nM

Same assay, conditions: Table 2, wild-type RSV

Row | EC50 | Compound
9 | 318 nM | CC(C)(C)C=Cc1c(Cn2c(=O)n(C3CC3)c3ccncc32)nc2cnccn12 [Compound P15]
10 | 172 nM | CC(C)(C)CCc1c(Cn2c(=O)n(C3CC3)c3ccncc32)nc2cnccn12 [Compound P16]
11 | 2.61 nM | CN(C)C(=O)CCc1c(Cn2c(=O)n(C3CC3)c3ccncc32)nc2cc(Cl)ccn12 [Compound P23]
12 | 15.3 nM | CN(C)C(=O)CCc1c(Cn2c(=O)n(C3CC3)c3ccncc32)nc2ccccn12 [Compound P25]

Row | Compound | EC50
13 | COC(=O)C=Cc1c(Cn2c(=O)n(C3CC3)c3ccncc32)nc2cc(Cl)ccn12 [Compound P20] | 2.97 nM
14 | N#CC=Cc1c(Cn2c(=O)n(C3CC3)c3ccncc32)nc2cc(Cl)ccn12 [Compound P21] | 13.6 nM

Same assay, conditions: human respiratory syncytial virus; Table 1, wild-type RSV

Row | EC50 | Compound
15 | 0.4 nM | O=c1n(Cc2nc3cc(Cl)ccn3c2CCCCO)c2cnccc2n1C1CC1 [Compound P1, 3-((7-chloro-3-(4-hydroxybutyl)imidazo[1,2-a]pyridin-2-yl)methyl)-1-cyclopropyl-1H-imidazo[4,5-c]pyridin-2(3H)-one]
16 | 5.25 nM | O=c1n(Cc2nc3ccccn3c2CCC2CC2)c2cnccc2n1C1CC1 [Compound P3, 1-cyclopropyl-3-((3-(2-cyclopropylethyl)imidazo-[1,2-a]pyridin-2-yl)methyl)-1H-imidazo[4,5-c]pyridin-2(3H)-one]

Same assay, conditions: human respiratory syncytial virus; Table 2, wild-type RSV

Row | EC50 | Compound
17 | 276 nM | O=c1n(Cc2nc3cnccn3c2CCCCO)c2cnccc2n1C1CC1 [Compound P17, 1-cyclopropyl-3-((3-(4-hydroxybutyl)imidazo[1,2-a]pyrazin-2-yl)methyl)-1H-imidazo[4,5-c]pyridin-2(3H)-one]
18 | 2.19 nM | O=C(CCc1c(Cn2c(=O)n(C3CC3)c3ccncc32)nc2cc(Cl)ccn12)N1CCOCC1 [Compound P26, 3-((7-chloro-3-(3-morpholino-3-oxopropyl)imidazo[1,2-a]pyridin-2-yl)methyl)-1-cyclopropyl-1H-imidazo[4,5-c]pyridin-2(3H)-one]
19 | 55.8 nM | O=C(CCc1c(Cn2c(=O)n(C3CC3)c3ccncc32)nc2ccccn12)N1CCOCC1 [Compound P27, 1-cyclopropyl-3-((3-(3-morpholino-3-oxopropyl)imidazo[1,2-a]pyridin-2-yl)methyl)-1H-imidazo[4,5-c]pyridin-2(3H)-one]

Row | Compound | EC50
20 | O=c1n(Cc2nc3cnccn3c2CCCCF)c2cnccc2n1C1CC1 [Compound P18, 1-cyclopropyl-3-((3-(4-fluorobutyl)imidazo[1,2-a]pyrazin-2-yl)methyl)-1H-imidazo[4,5-c]pyridin-2(3H)-one] | 544 nM

Test system: not listed separately
Test: Toxicity (CC50)
Settings: not given

Row | Compound | CC50
21 | O=c1n(Cc2nc3cc(Cl)ccn3c2CCCCO)c2cnccc2n1C1CC1 [Compound P1, 3-((7-chloro-3-(4-hydroxybutyl)imidazo[1,2-a]pyridin-2-yl)methyl)-1-cyclopropyl-1H-imidazo[4,5-c]pyridin-2(3H)-one] | > 9840 nM
22 | O=c1n(Cc2nc3ccccn3c2CCC2CC2)c2cnccc2n1C1CC1 [Compound P3, 1-cyclopropyl-3-((3-(2-cyclopropylethyl)imidazo-[1,2-a]pyridin-2-yl)methyl)-1H-imidazo[4,5-c]pyridin-2(3H)-one] | > 9840 nM
